Assay results: patent US20260374756A1, “HETEROCYCLIC COMPOUNDS AS INHIBITORS OF MONOACYLGLYCEROL LIPASE (MAGL)” (Hoffmann-La Roche Inc., priority 2022, published 2026)

What follows are compounds tested against T1, hMAGL (Homo sapiens, UniProt Q99685) (assay: 2-AG assay: MAGL inhibition, hydrolysis of 2-arachidonoylglycerol to arachidonic acid followed by mass spectrometry).
T1 sequence (Q99685 1-303): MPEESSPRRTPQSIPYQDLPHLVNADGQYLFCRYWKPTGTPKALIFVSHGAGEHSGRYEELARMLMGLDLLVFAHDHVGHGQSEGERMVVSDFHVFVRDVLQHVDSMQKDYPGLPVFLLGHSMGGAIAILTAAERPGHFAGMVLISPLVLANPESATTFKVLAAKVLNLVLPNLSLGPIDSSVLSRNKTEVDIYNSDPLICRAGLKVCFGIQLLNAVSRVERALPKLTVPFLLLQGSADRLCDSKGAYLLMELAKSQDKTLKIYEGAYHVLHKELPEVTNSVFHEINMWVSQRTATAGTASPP
Format: biochemical
Procedure, shortened: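 MAGL preincubated with compound 15 min at RT in 50 mM Tris, 1 mM EDTA, 0.01% Tween-20, 2.5% DMSO; reaction started with 8 μM 2-AG (final), […], 30 min at RT. Quenched with acetonitrile containing d8-arachidonic acid; arachidonic acid quantified by RapidFire SPE-triple quad MS as arachidonic acid/d8 ratio.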

Row | SMILES | IC50 [nM]
1 | O=C(N1CC2(CC(Cc3cc(C(F)F)n[nH]3)C2)C1)N1CC2(CC(n3cnc(C(F)(F)F)n3)C2)C1 [Example 295, [6-[[3-(difluoromethyl)-1H-pyrazol-5-yl]methyl]-2-azaspiro[3.3]heptan-2-yl]-[6-[3-(trifluoromethyl)-1,2,4-triazol-1-yl]-2-azaspiro[3.3]heptan-2-yl]methanone] | 1.11
2 | O=C(N1CC2(CC(Cn3cnc(C4(C(F)(F)F)CC4)n3)C2)C1)N1CC2(CC(n3cnc(C4(O)CC4)n3)C2)C1 [Example 75, [6-[3-(1-hydroxycyclopropyl)-1,2,4-triazol-1-yl]-2-azaspiro[3.3]heptan-2-yl]-[6-[[3-[1-(trifluoromethyl)cyclopropyl]-1,2,4-triazol-1-yl]methyl]-2-azaspiro[3.3]heptan-2-yl]methanone] | 7.62
3 | Cn1nc(C2CC2)cc1CN1CC2(C1)CN(C(=O)N1CC3(CC(n4cnc(C5CC5)n4)C3)C1)C2 [Example 272, [6-[(5-cyclopropyl-2-methyl-pyrazol-3-yl)methyl]-2,6-diazaspiro[3.3]heptan-2-yl]-[6-(3-cyclopropyl-1,2,4-triazol-1-yl)-2-azaspiro[3.3]heptan-2-yl]methanone] | 7
4 | Cn1ncc(OC2CC3(C2)CN(C(=O)N2CC4(CC(n5cnc(C6CC6)n5)C4)C2)C3)c1C(F)(F)F [Example 247, [6-(3-cyclopropyl-1,2,4-triazol-1-yl)-2-azaspiro[3.3]heptan-2-yl]-[6-[1-methyl-5-(trifluoromethyl)pyrazol-4-yl]oxy-2-azaspiro[3.3]heptan-2-yl]methanone] | 0.92
5 | O=C(N1CC2(CC(Cc3nc(C(F)(F)F)no3)C2)C1)N1CC2(CC(n3cnc(C4(O)CC4)n3)C2)C1 [Example 138] | 18.1
6 | O=C(N1CC2(CC(Cn3ccnc3C(F)(F)F)C2)C1)N1CC2(CC(n3cnc(C4(O)CC4)n3)C2)C1 [Example 146] | 14.8
7 | N#Cc1cnn(CC2CC3(C2)CN(C(=O)N2CC4(CC(n5cnc(C6(O)CC6)n5)C4)C2)C3)c1 [Example 38] | 190
8 | Cc1c(CN2CC3(C2)CN(C(=O)N2CC4(CC(n5cnc(C(F)(F)F)n5)C4)C2)C3)cnn1CC(F)(F)F [Example 114, [6-[[5-methyl-1-(2,2,2-trifluoroethyl)pyrazol-4-yl]methyl]-2,6-diazaspiro[3.3]heptan-2-yl]-[6-[3-(trifluoromethyl)-1,2,4-triazol-1-yl]-2-azaspiro[3.3]heptan-2-yl]methanone] | 311

The next lines start with the values.

Row | IC50 [nM] | SMILES
9 | 10.3 | O=C(N1CC2(CC(Cn3ncnc3C(F)(F)F)C2)C1)N1CC2(CC(n3cnc(C(F)(F)F)n3)C2)C1 [Example 333, [6-[3-(trifluoromethyl)-1,2,4-triazol-1-yl]-2-azaspiro[3.3]heptan-2-yl]-[6-[[5-(trifluoromethyl)-1,2,4-triazol-1-yl]methyl]-2-azaspiro[3.3]heptan-2-yl]methanone]
10 | 0.92 | O=C(N1CC2(CC(Cc3cnn(CC(F)(F)F)n3)C2)C1)N1CC2(CC(n3cnc(C4CC4)n3)C2)C1 [Example 350, [6-(3-cyclopropyl-1,2,4-triazol-1-yl)-2-azaspiro[3.3]heptan-2-yl]-[6-[[2-(2,2,2-trifluoroethyl)triazol-4-yl]methyl]-2-azaspiro[3.3]heptan-2-yl]methanone]
11 | 2860 | Cn1cnc(CN2CC3(C2)CN(C(=O)N2CC4(CC(n5cnc(C6CC6)n5)C4)C2)C3)c1 [Example 305, [6-(3-cyclopropyl-1,2,4-triazol-1-yl)-2-azaspiro[3.3]heptan-2-yl]-[6-[(1-methylimidazol-4-yl)methyl]-2,6-diazaspiro[3.3]heptan-2-yl]methanone]
12 | 11.5 | CS(=O)(=O)c1cnn(CC2CC3(C2)CN(C(=O)N2CC4(CC(n5cnc(C6CC6)n5)C4)C2)C3)c1 [Example 332, [6-(3-cyclopropyl-1,2,4-triazol-1-yl)-2-azaspiro[3.3]heptan-2-yl]-[6-[(4-mesylpyrazol-1-yl)methyl]-2-azaspiro[3.3]heptan-2-yl]methanone]
